Test system: Mythimna separata
Assay: Test Example 1: efficacy on Mythimna separata (treated artificial feed)
Assay type: in vivo
Settings: 1 μl of 5% emulsion (I) mixed with 0.8 g artificial feed; second instar larvae; 25° C.; fifth day
Protocol: 5 parts of the (hetero)aryl imidazole compound of the present invention, 93.6 parts of dimethylformamide, and 1.4 parts of polyoxyethylene alkyl aryl ether were mixed and dissolved to prepare emulsion (I) containing 5% of the active ingredient.
For a control, 98.5 parts of dimethylformamide and 1.5 parts of polyoxyethylene alkyl aryl ether were mixed and dissolved to prepare emulsion (II).
An insecticidal rate was calculated according to the following expression: Insecticidal rate (%)=(The number of dead insects/The number of tested insects)×100
0.8 g of commercially available artificial feed (Insecta LFS, manufactured by Nosan Corp.) and 1 μl of the emulsion (I) were well mixed to obtain test feed.
A plastic test container (capacity: 1.4 ml) was packed with 0.2 g of the test feed per treatment plot. Then, two second instar larvae of Mythimna separata were inoculated to each treatment plot. A plastic lid was put on the test container so as to prevent escape of the second instar larvae of Mythimna separata. The container was placed in a thermostat chamber of 25° C. On the fifth day, the insecticidal rate and the food intake were examined. The test was conducted in duplicate.
The insecticidal rate and the food intake of a control plot were examined in the same way as in Test Example 1 except that the emulsion (I) was changed to the emulsion (II).

Row | Structure (SMILES) | insecticidal rate or food intake as compared with the control plot
1 | CCSc1cc(C2CC2)ccc1-c1ncc(C=C(Cl)C(F)(F)F)n1C (mixture of isomers) [d-6] | insecticidal rate of 100% for Mythimna separata or a food intake of 10% or less as compared with the control plot
2 | CCS(=O)(=O)c1cc(C2CC2)ccc1-c1ncc(C=C(Cl)C(F)(F)F)n1C (mixture of isomers) [d-7] | insecticidal rate of 100% for Mythimna separata or a food intake of 10% or less as compared with the control plot
3 | CCS(=O)(=O)c1cc(C2(C(N)=S)CC2)cnc1-c1ncc(C=C(Cl)C(F)(F)F)n1C (mixture of isomers) [d-18] | insecticidal rate of 100% for Mythimna separata or a food intake of 10% or less as compared with the control plot
4 | CCS(=O)(=O)c1cc(C2(C)CC2)cnc1-c1ncc(C=C(Cl)C(F)(F)F)n1C (mixture of isomers) [d-20] | insecticidal rate of 100% for Mythimna separata or a food intake of 10% or less as compared with the control plot
5 | CCS(=O)(=O)c1cc(C2(c3ccccn3)CC2)cnc1-c1ncc(C=C(Cl)C(F)(F)F)n1C (mixture of isomers) [d-21] | insecticidal rate of 100% for Mythimna separata or a food intake of 10% or less as compared with the control plot
6 | CCS(=O)(=O)c1cc(C2CC2)cnc1-c1ncc(C=C(Br)C(F)(F)F)n1C (mixture of isomers) [d-24] | insecticidal rate of 100% for Mythimna separata or a food intake of 10% or less as compared with the control plot
7 | Cn1c(C=C(Cl)C(F)(F)F)cnc1-c1ncc(C2CC2)cc1S(C)(=O)=O (mixture of isomers) [d-28] | insecticidal rate of 100% for Mythimna separata or a food intake of 10% or less as compared with the control plot
8 | CCS(=O)(=O)c1cc(C2CCCC2)cnc1-c1ncc(C=C(Cl)C(F)(F)F)n1C (mixture of isomers) [d-32] | insecticidal rate of 100% for Mythimna separata or a food intake of 10% or less as compared with the control plot
9 | CCS(=O)(=O)c1cc(C2CC2)cnc1-c1ncc(C(F)=C(F)OC(F)(F)F)n1C (mixture of isomers) [d-37] | insecticidal rate of 100% for Mythimna separata or a food intake of 10% or less as compared with the control plot
10 | CCS(=O)(=O)c1cc(C2CC2)c[n+]([O-])c1-c1ncc(C=C(Cl)C(F)(F)F)n1C (mixture of isomers) [e-4] | insecticidal rate of 100% for Mythimna separata or a food intake of 10% or less as compared with the control plot
11 | CCS(=O)(=O)c1cc(C2CC2)cnc1-c1ncc(C=CC(F)(F)C(F)(F)F)n1C [d-1] | insecticidal rate of 100% for Mythimna separata or a food intake of 10% or less as compared with the control plot
12 | CCS(=O)(=O)c1cc(C2CC2)ccc1-c1ncc(C=CC(F)(F)C(F)(F)C(F)(F)F)n1C [d-3] | insecticidal rate of 100% for Mythimna separata or a food intake of 10% or less as compared with the control plot
13 | CCS(=O)(=O)c1cc(C2CC2)cnc1-c1ncc(C=CC(F)(F)C(F)(F)C(F)(F)C(F)(F)F)n1C [d-4] | insecticidal rate of 100% for Mythimna separata or a food intake of 10% or less as compared with the control plot
14 | CCS(=O)(=O)c1cc(C2CC2)ccc1-c1ncc(C=CC(F)(F)C(F)(F)F)n1C [d-5] | insecticidal rate of 100% for Mythimna separata or a food intake of 10% or less as compared with the control plot
15 | CCS(=O)(=O)c1cc(C2CC2)cnc1-c1ncc(C=C(Cl)Cl)n1C [d-8] | insecticidal rate of 100% for Mythimna separata or a food intake of 10% or less as compared with the control plot
16 | CCS(=O)(=O)c1cc(C2CC2)cnc1-c1ncc(C=C(Cl)C(F)(F)C(F)(F)F)n1C [d-12] | insecticidal rate of 100% for Mythimna separata or a food intake of 10% or less as compared with the control plot
17 | CCS(=O)(=O)c1cc(C2CC2)cnc1-c1ncc(C=C(Cl)C(F)(F)C(F)(F)C(F)(F)F)n1C [d-13] | insecticidal rate of 100% for Mythimna separata or a food intake of 10% or less as compared with the control plot
18 | CCS(=O)(=O)c1cc(C2CC2)cnc1-c1ncc(C=C(Cl)I)n1C [d-14] | insecticidal rate of 100% for Mythimna separata or a food intake of 10% or less as compared with the control plot
19 | CCS(=O)(=O)c1cc(C2(C#N)CC2)cnc1-c1ncc(C=C(Cl)C(F)(F)F)n1C [d-15, 1-(6-(5-(2-chloro-3,3,3-trifluoroprop-1-en-1-yl)-1-methyl-1H-imidazol-2-yl)-5-(ethylsulfonyl)pyridin-3-yl)cyclopropane-1-carbonitrile] | insecticidal rate of 100% for Mythimna separata or a food intake of 10% or less as compared with the control plot
20 | CCS(=O)(=O)c1cc(C2(C#N)CC2)cnc1-c1ncc(C=CC(F)(F)F)n1C [d-16] | insecticidal rate of 100% for Mythimna separata or a food intake of 10% or less as compared with the control plot
21 | CCS(=O)(=O)c1cc(C2CC2)cnc1-c1ncc(C=C(C(F)(F)F)C(F)(F)F)n1C [d-19] | insecticidal rate of 100% for Mythimna separata or a food intake of 10% or less as compared with the control plot
22 | CCS(=O)(=O)c1cc(C2(C#N)CC2)cnc1-c1ncc(C=CC(F)(F)C(F)(F)F)n1C [d-22] | insecticidal rate of 100% for Mythimna separata or a food intake of 10% or less as compared with the control plot
23 | CCS(=O)(=O)c1cc(C2(C#N)CC2)cnc1-c1ncc(C=CC(F)(F)C(F)(F)C(F)(F)F)n1C [d-23] | insecticidal rate of 100% for Mythimna separata or a food intake of 10% or less as compared with the control plot
24 | CCS(=O)(=O)c1cc(C2CC2)cnc1-c1ncc(C=C(F)C(F)(F)C(F)(F)C(F)(F)F)n1C [d-27] | insecticidal rate of 100% for Mythimna separata or a food intake of 10% or less as compared with the control plot
25 | CCS(=O)(=O)c1cc(C2(C)CC2)cnc1-c1ncc(C=CC(F)(F)C(F)(F)C(F)(F)F)n1C [d-29] | insecticidal rate of 100% for Mythimna separata or a food intake of 10% or less as compared with the control plot
26 | Cn1c(C=C(Cl)C(F)(F)C(F)(F)F)cnc1-c1ncc(C2CC2)cc1S(C)(=O)=O [d-30] | insecticidal rate of 100% for Mythimna separata or a food intake of 10% or less as compared with the control plot
27 | CCS(=O)(=O)c1cc(C2CC2)cnc1-c1ncc(C=C(Cl)C(F)(F)F)n1C [d-33] | insecticidal rate of 100% for Mythimna separata or a food intake of 10% or less as compared with the control plot
28 | CCS(=O)(=O)c1cc(C2CC2)cnc1-c1ncc(C(F)=C(F)OC(F)(F)C(F)(F)C(F)(F)F)n1C [d-35] | insecticidal rate of 100% for Mythimna separata or a food intake of 10% or less as compared with the control plot
29 | CCS(=O)(=O)c1cc(C2CC2)c[n+]([O-])c1-c1ncc(C=C(F)C(F)(F)C(F)(F)F)n1C [e-1] | insecticidal rate of 100% for Mythimna separata or a food intake of 10% or less as compared with the control plot
